Data from EP2623117A1, “Immunogenic nanomedicine composition and preparation and uses thereof” (Genetic Immunity Kft., priority 2009, dated 2010).

Legend:
[1] = Side reaction of formulation solvent with PEIm (UV spectra after storage); format: physicochemical; conditions: room temperature, 2 month
Method: • a) NanoComp formulations were prepared according to Example 1, using the same PEIm and pDNA at N/P ratio of 3, and different solvents: sterile water, physiological NaCl (0.9%), D(+)-Mannitol (10 mg/ml), Sorbitol (10 mg/ml), D(+)-Glucose (10 mg/ml), Mannose (10 mg/ml), Sucrose (10 mg/ml), Triethanolamine buffer (TEA) (pH 7.5), D(+)-Mannitol (10 mg/ml) in triethanolamine (TEA) buffer (pH 7.5), Sorbitol (10 mg/ml) in triethanolamine buffer (pH 7.5) and D(+)-Mannitol (10 mg/ml) and Glycerol (10 mg/ml) in triethanolamine buffer (pH 7.5). The biological activity is given procentual related to the biological activity of the formulation in sterile water. Results are shown in Fig. 7A. • b) PEIm solution, mixture of PEIm with Glucose (10%) and Mannitol (10%) respectively, NanoComp formulations with Glucose (10%) and Mannitol (10%) were prepared according to Example 1, the missing component in all mixtures were replaced with water, to ensure the same concentration of the components. The prepared solutions were stored at room temperature (approx. 25°C) for 2 month. UV spectra were recorded without dilution. […] The particle size of the formed complexes was measured using ZetaPALS, Brookehaven instrument freshly and after 6 days storage at room temperature.

293T human cells = assay: In vitro biological activity assay: transfection of 293T cells, HIV-1 p24 antigen ELISA of supernatant; format: cell-based; conditions: N/P ratio of 3
Method: The in vitro biological activity test of the NanoComp is performed by transfection of 293T human cells. 50,000 cells are plated in 96 well plate 19 hours before transfection, using DMEM culture medium (DMEM, 1% FBS, 1% L-glutamine, 1% Penicillin-Streptomycin). 0.5µg pDNA/NanoComp is added to each well followed by 21 hours incubation at 37°C in 5% CO2 air condition. During the incubation period, the HIV-specific protein antigens encoded by the pDNA are expressed and secreted into the culture medium. After 21 hours, the supernatant of the cells are collected, and HIV-1 p24 antigen ELISA is performed to quantify p24 protein produced by the pDNA.

Compound: OC[C@@H](O)[C@@H](O)[C@H](O)[C@H](O)CO [mannitol, D(+)-Mannitol]
- side reaction of solvent with PEIm over time [1]: without side reactions with PEIm
- effect of solvent on the biological activity of the NanoComp compared to sterile water (293T human cells): same improving effect on the biological activity
